The text below walks through data of patent US9512152B2, “Phospholipid compound containing unsaturated fatty acid derivative having cyclopropane ring” (NISHIZAKI BIOINFORMATION RESEARCH INSTITUTE, priority 2013, dated 2016).

In test [1] the test system is Akt in 3T3L1-GLUT4myc adipocytes. Put plainly: Akt activation, Western blotting of phospho-Akt (Thr308, Ser473). Format: cell-based. Conditions: diDCP-LA-PE 1 μM, FIG. 4. The protocol: 3T3L1-GLUT4myc fibroblast strain expressing GLUT4myc was used. The cells are constructed by inserting human c-MYC epitope (14 amino acids) into the first ectodomain. The cells were cultured in Dulbecco's Modified Eagles Medium (DMEM) added with 10% (v/v) bovine serum, penicillin (final concentration, 100 U/ml) and streptomycin (final concentration, 0.1 mg/ml) in a humid environment under 5% CO2 and 95% air at 37° C. When the cells reached confluence (day 0), the medium was exchanged with DMEM added with 10% (v/v) fetal bovine serum (FBS), 1 μM dexamethasone, 0.5 mM 3-isobutyl-methyl-xanthine and 0.1 mg/ml insulin to allow for differentiation from fibroblast into adipocyte. The medium was exchanged with DMEM added with 10% (v/v) FBS on day 3, day 7 and day 11. On day 14, the cells were used for the experiment. […]
For Western blotting, the protein was separated by SDS-polyacrylamide gel electrophoresis (SDS-PAGE), and transferred onto polyvinylidene difluoride membranes. […] The immunoreactivity was detected using ECL kit (GE Healthcare, Piscataway, N.J., USA), and visualized using a chemical luminescence detection system (chemiluminescence detection system; GE Healthcare). The protein concentration of each sample was measured using BCA protein assay kit (Thermo Fisher Scientific, Waltham, Mass., USA).

Test [2] concerns 3T3L1-GLUT4myc adipocytes having a knocked-down insulin receptor. The experiment in a line: GLUT4 trafficking in adipocytes with knocked-down insulin receptor. Conditions: 1 μM, 20 min, absence of insulin, FIG. 12. It is filed as cell-based. How it is done:
3T3L1-GLUT4myc adipocytes were incubated in Krebs-Ringer-HEPES buffer [136 mM NaCl, 4.7 mM KCl, 1.25 mM CaCl2, 1.25 mM MgSO4 and 20 mM HEPES, pH 7.5] containing 0.2% (w/v) bovine serum albumin and added with 10 mM glucose at 37° C. for 1 hr. The cells were incubated in the presence or absence of insulin, phospholipid or a derivative thereof for 20 min. Then, the cells were homogenized by sonication in an ice-cooled mitochondria buffer containing 1% (v/v) protease inhibitor cocktail [210 mM mannitol, 70 mM sucrose, and 1 mM ethylenediaminetetraacetic acid (EDTA), 10 mM HEPES, pH 7.5]. Sequentially, the homogenate was centrifuged at 4° C. for 5 min at 3,000 rpm. The supernatant was further centrifuged at 4° C. for 15 min at 11,000 rpm. The recovered supernatant was ultracentrifuged at 4° C. for 60 min at 100,000 g, and separated into a cytoplasm fraction and a cellular membrane fraction. […] The protein concentration of each fraction was measured using BCA protein assay kit (Thermo Fisher Scientific, Waltham, Mass., USA). […] The immunoreactivity was detected using ECL kit (Invitrogen), and visualized using a chemical luminescence detection system (chemiluminescence detection system; GE Healthcare, Piscataway, N.J., USA). The signal density was measured using an image analysis software (Image Gauge software; GE Healthcare). […]

With `CCCCCC1CC1CC1CC1CCCCCCCC(=O)OC[C@H](COP(=O)(O)OCCN)OC(=O)CCCCCCCC1CC1CC1CC1CCCCC` (some centres unmarked) [diDCP-LA-PE, 1,2-o-bis-[8-{2-(2-pentyl-cyclopropylmethyl)-cyclopropyl}-octanoyl]-sn-glycero-3-phosphatidylethanolamine], in test [1], the “Akt activation (phosphorylation of Thr308 and Ser473 relative to total Akt)” value was “has an action to activate Akt”. In addition, the “Transfer of GLUT4 to cellular membrane, insulin receptor knock-down” value in test [2] was “can promote transfer of GLUT4 to a cellular membrane in an insulin receptor independent manner”.
